Here are results for 18 compounds from patent publication US7053082B1, “2,3-benzodiazepine derivatives” (priority 1999, dated 2006).

Molecules are shown by their SMILES.

For data set [1], the system named is MgCl2-induced global cerebral ischemia in mice. Description: Neuroprotective effect in MgCl2-induced global cerebral ischemia in mice. The data set is classed as in vivo. To be noted: dose that prolonged survival time by 50%; i.p. 30 min before i.v. saturated MgCl2 (5 ml/kg); male NMRI mice. The protocol:
Male NMRI mice weighing 20–25 g were randomly allocated to treatment groups of 10 animals/group. The compounds were dissolved in 5 M hydrochloric acid solution and distilled water (5%/95% v/v) then the pH of the solution was adjusted to 3 using 1 M sodium hydroxide solution. The compounds were administered intraperitoneally in a volume of 10 ml/kg. Each compound was tested at four increasing dose levels and a separate group of animals was treated with the vehicle. Thirty min after treatment all mice received an intravenous bolus injection of saturated MgCl2 solution (5 ml/kg) that caused an immediate cardiac arrest and complete cerebral ischemia. Increases in survival time (interval between the injection of MgCl2 and the last observable gasp) were used as a measure of neuroprotective effect as described by Berga et al.. Percentage changes in survival time were calculated in comparison to that measured in the vehicle treated group. PD50 (the dose that prolonged survival by 50%) was calculated by linear regression analysis using percentage changes in survival time.

Data set [2] can be described thus: Duration of action in rats as assessed from the decrease in body core temperature. The data set is classed as in vivo. To be noted: male Wistar rats, i.p.; for PE, Δ ° C. (peak effect, maximum decrease in body temperature): radiotelemetry core body temperature, versus last value prior to treatment; for D, hours (duration of action): time from treatment to return of body temperature to the control level.
Experimental: At least one week prior to treatments six male Wistar rats were anaesthetised with pentobarbital-Na (60 mg/kg, i.p.; Nembutal, Phylaxia-Sanofi, Budapest). Using sterile surgical procedures TL11M2-C50-PXT or TA10TA-F40 type radiotelemetry transmitters (Data Sciences International, St. Paul, Minn., USA) permitting continuous monitoring of core body temperature were implanted into the peritoneal cavity of the animals. After surgery the rats were treated with an antibiotic (1 ml/kg b.w. i.m. Tardomyocel, Bayer A G, Leverkusen, Germany). The animals were housed individually in type 2 plastic rat cages with free access to food and tap water. The compounds were dissolved in 5 M hydrochloric acid solution and distilled water (5%/95% v/v) then the pH of the solution was adjusted to 3 using 1 M sodium hydroxide solution. The compounds were administered intraperitoneally in a volume of 10 ml/kg.
Radio signals emitted by the transmitters were detected by RLA1000 type receivers placed under each animal's cage. Data were collected and saved by a Dataquest IV computerised data acquisition system. The computer was set to sample body temperature for 10 seconds in every second minute. Mean values for 30 min periods over the whole day were calculated running the “Sort Utility” of the Dataquest IV. […] The upper and lower limits of the evaluating routine were set to exclude biologically improbable values. Individual body temperature curves were averaged for the six animals.
Peak effect (PE) was measured as the maximum decrease in body temperature in comparison to the last value prior to treatment. Using mean values, duration of action (D) was measured as the time interval from treatment to return of body temperature to the control level.

Broadly, the melting point is the temperature of the solid-liquid transition. `CCC(=O)N1N=C(c2ccc([N+](=O)[O-])c(C)c2)c2cc3c(cc2CC1(C)C#N)OCO3` (racemic) registered a melting point of 191 to 193 °C.
Turning to `Cc1cc(C2=NN=C(C=NNC(N)=O)Cc3cc4c(cc32)OCO4)ccc1[N+](=O)[O-]`, the melting point lay in the range of 260 to 264 °C.
`Cc1cc(C2=NNC(C)(C#N)Cc3cc4c(cc32)OCO4)ccc1[N+](=O)[O-]` (racemic) displayed a melting point of 148 to 151 °C.
As for `CC1=Cc2cc3c(cc2C(c2ccc([N+](=O)[O-])c(C)c2)=NN1C(=O)NC1CC1)OCO3`, the melting point lay within 198 to 202 °C.
Take `CC1=NN=C(c2ccc([N+](=O)[O-])c(C)c2)c2cc3c(cc2C1)OCO3`: the melting point fell in the range of 189 to 194 °C.
Consider `CONC(=O)N1N=C(c2ccc(N)c(C)c2)c2cc3c(cc2CC1C)OCO3` (racemic) [Example 30, (±)-5-(4-amino-3-methyl-phenyl)-7,8-dihydro-8-methyl-7-(N-methozy-carbamoyl)-9H-1,3-dioxolo[4,5-h][2,3]benzodiazepine], for which the “PD50, mg/kg i.p.” value in data set [1] is reported as 14.9 mg/kg.
In turn, `CCC(=O)N1N=C(c2ccc([N+](=O)[O-])c(C)c2)c2cc3c(cc2CC1C)OCO3` (racemic) gave a melting point of 172 to 175 °C.
`Cc1cc(C2=NN=C(C(=O)O)Cc3cc4c(cc32)OCO4)ccc1[N+](=O)[O-]` showed a melting point of 185 to 186 °C.
`CC(=O)N1N=C(c2ccc([N+](=O)[O-])c(C)c2)c2cc3c(cc2CC1C)OCO3` (racemic) came in with a melting point of 178 to 181 °C.
Compound `CC(=O)N1N=C(c2ccc([N+](=O)[O-])c(C)c2)c2cc3c(cc2CC1(C)C#N)OCO3` (racemic) yielded a melting point of 253 to 255 °C.
As for `CC(=O)N1N=C(c2ccc(N)c(C)c2)c2cc3c(cc2CC1C)OCO3` (racemic) [Example 27, (±)-7-acetyl-5-(4-amino-3-methyl-phenyl)-7,8-dihydro-8-methyl-9H-1,3-dioxolo[4,5-h][2,3]benzodiazepine], the melting point is 121 to 123 °C. In addition, the “PD50, mg/kg i.p.” value in data set [1] came to 5.4 mg/kg. In addition, in data set [2], the “PE, Δ ° C. (peak effect, maximum decrease in body temperature)” value is −1.45 °C and the “D, hours (duration of action)” value is >20 h.
`Cc1cc(C2=NN=C(C#N)Cc3cc4c(cc32)OCO4)ccc1N`: the melting point fell in the range of 252 to 255 °C.
`Cc1cc(C2=NN=C(C=O)Cc3cc4c(cc32)OCO4)ccc1[N+](=O)[O-]` had a melting point of 188 to 191 °C.
The compound `CC(=O)N1N=C(c2ccc(N)c(C)c2)c2cc3c(cc2C=C1C)OCO3` displayed a melting point of 222 to 223 °C.
`CC(=O)N1N=C(c2ccc(N)c(C)c2)c2cc3c(cc2CC1(C)C#N)OCO3` (racemic) [Example 38, (±)-7-acetyl-5-(4-amino-3-methyl-phenyl)-8-cyano-7,8-dihydro-8-methyl-9H-1,3-dioxolo[4.5-h][2.3]benzodiazepine]: the “PD50, mg/kg i.p.” value in data set [1] came to 11.2 mg/kg. Besides, in data set [2], the “PE, Δ ° C. (peak effect, maximum decrease in body temperature)” value was −1.34 °C and the “D, hours (duration of action)” value turned out to be 9 h.
`CNC(=O)N1N=C(c2ccc(N)c(C)c2)c2cc3c(cc2CC1C)OCO3` (racemic) [Example 31, (±)-5-(4-amino-3-methyl-phenyl)-7,8-dihydro-8-methyl-7-(N-methyl-carbamoyl)-9H-1,3-dioxolo[4.5-h][2.3]benzodiazepine]: in data set [2], the “PE, Δ ° C. (peak effect, maximum decrease in body temperature)” value was −1.46 °C and the “D, hours (duration of action)” value is 20 h.
Compound `Cc1cc(C2=NN(C(=O)NC3CC3)C(C)Cc3cc4c(cc32)OCO4)ccc1N` (racemic) displayed a melting point of 179 to 181 °C.
The same measure, in the same setting: for `CC(=O)N1N=C(c2ccc([N+](=O)[O-])c(C)c2)c2cc3c(cc2CC1C(N)=O)OCO3` (racemic) the value was 157 to 161 °C.
